This note sets out measurements from patent publication US20170356005A1, “NON-VIRAL IPSCS INDUCING COMPOSITION AND KITS” (Guangzhou Biocare Biotechnology Co., Ltd, priority 2016, published 2017).

Structures can show the parent of a compound that is named as a salt.

The test system of the test is urine-derived renal epithelial cells. Description: AP staining of iPSC clones after induction culture (efficiency of AP positive clones). The format is cell-based, human. Conditions: Example 5, FIG. 11-12. The procedure:
1. The procedure for AP staining is as follows,
a) Aspirate and remove the growth medium from the cultures to be stained when the cell culture is finished, wash the culture with 1×PBS one time; Fix the cells with 4% paraformaldehyde at room temperature for 2 min;
b) Aspirate the fixing solution, wash the culture with 1×TBST for 3 times; Balance with AP buffer at room temperature for 5 min;
c) Chromogenic reaction was performed with AP chromogenic reagent at room temperature in dark for 15 min (5-15 min, terminated when the color of clones became darker and without background, increase the reaction time appropriately if the clones were not stained). The chromogenic reagent was aspirated, cells were washed with 1×PBS for two times, covered with an appropriate amount of 1×PBS, observed and counted under a microscope.
Alkaline phosphatase (AP) is a phosphomonoesterase. The alkaline phosphatase in the cytoplasm can hydrolyze sodium naphthol phosphate to produce α-naphthol in alkaline environments. The latter reacts with a stable azo salt and presents a deep purple color, which the presence of alkaline phosphatase and the abundance of expression could be determined accordingly. Alkaline phosphatase is highly expressed in undifferentiated pluripotent stem cells, and the activity of alkaline phosphatase in the differentiated pluripotent stem cells is decreased. Therefore, whether the cells are clones of iPSCs could be determined by alkaline phosphatase staining (AP staining). And, thus the efficiency of iPSCs production can be easily judged according to the efficiency of AP positive clones.
In Example 1-2 and 4-6, the efficiency of AP positive clones was determined based on the number of cells in each group after electroporation transformation, ie the efficiency of AP positive clones=number of AP positive clones/number of passaged cells per well after electroporation in each group;
In Example 3 and 7-10, the efficiency of AP positive clones was determined based on the total number of cells after electroporation transformation, i.e. the efficiency of AP positive clones=number of AP positive clones/total number of cells after electroporation transformation.
a) Electroporation transformation: The recombinant plasmids obtained in step 1) were added into the culture of renal epithelial cells after digestion with trypsin, and then transferred into the renal epithelial cells. […]
b) Induction culture: 1-3 days after Step 1), or when the cells reached a confluence of 30% or more, the culture medium of pluripotent stem cell was used to continue induction culture. About 15-30 days after the mature of iPSCs clones, the positive clones of iPSCs were identified by AP staining, and the efficiency of AP positive clones was calculated accordingly;
As for `Cc1c[nH]c(-c2cnc(NCCNc3ccc(C#N)cn3)nc2-c2ccc(Cl)cc2Cl)n1` [CHIR-99021], the “preferable concentration (AP staining)” value was found to be 3 µM. On to `CCCC(=O)[O-].[Na+]` [sodium butyrate, Sodium Butyrate], for which the “preferable concentration (AP staining)” value came out at 250 µM. For the molecule `O=C(NOC[C@H](O)CO)c1ccc(F)c(F)c1Nc1ccc(I)cc1F` [PD0325901], the “preferable concentration (AP staining)” value worked out at 0.5 µM. `N[C@@H]1C[C@H]1c1ccccc1` [tranylcypromine hydrochloride, Tranylcypromine hydrochloride]: the “preferable concentration (AP staining)” value came out at 2 µM.
